Results taken from patent US20260294915A1, “COMBINATION THERAPY COMPRISING A MAT2A INHIBITOR AND A TOPOISOMERASE INHIBITOR, A SPLICING INHIBITOR SULFONAMIDE, OR A KIF18 INHIBITOR” (IDEAYA BIOSCIENCES, INC., priority 2023, published 2026).

Columns and labels:
Assay type in all cases: cell-based
NCI-H838 = test: 10-day proliferation (CTG), equimolar Compound A + Compound B (Example 1); conditions: Homo sapiens, NCI-H838, 240 h, 10 days, single agent or 1:1 combo; for IC30: read-out: gIC30; for IC40: read-out: gIC40; for IC50: read-out: gIC50; for IC60: read-out: gIC60; for IC70: read-out: gIC70; for IC80: read-out: gIC80; for IC90: read-out: gIC90; for IC100: read-out: gIC100
Description: (§1) A 10-day proliferation assay was performed in a panel of 5 MTAP-deficient and 2 wild type non-small cell lung and bladder cancer cell lines. Optimal cell seeding for all cell lines was determined by assessing the growth over a range of seeding densities in a 384-well format to identify conditions that permitted proliferation for 10 days. Cells were then plated at the optimal seeding density and treated with 20-point, two-fold dilution series of Compound A, sovilnesib (“Compound B”), or an equimolar combination of Compound A and Compound B. Concentrations tested for Compound A and Compound B alone or in combination ranged from 0.038 nM to 20,000 nM. A plate of cells was harvested at the time of compound addition to quantify the number of cells at the start of the combination (T0). For cell quantification, the harvested cells were lysed with Promega CellTiter-Glo (CTG) reagent according to the manufacturer's protocol and the chemiluminescent signal was detected on a Synergy Neo plate reader. CTG estimates cell number through detection of cellular ATP levels. Cells were incubated with the drug combinations at 37° C. with 5% CO2 for 10 days. Cells were then lysed with CTG and the chemiluminescent signal was measured.
(§2) CTG values obtained after the 10-day treatment were background subtracted and expressed as a percent of the T0 value. Data were plotted against compound concentration and fit with a four-parameter equation to generate dose response curves for each single agent and the equimolar combination. Growth ICx (gICx) values ranging from gIC30 to gIC100 were interpolated from the fitted curves. Synergistic growth inhibition was assessed by determination of Combination Index (CI) values at these various points across the titration using the mutually non-exclusive equation [Chou, 1983; Chou, 1981] shown below where A equals the gIC value of Compound A, B equals the gICx value of Compound B, and A+B or B+A equals the gICx value of the equimolar combination. A Combination Index value less than 1.0 was considered synergistic.
(§3) Synergy was measured for equimolar combinations of Compound A and Compound B utilizing the mutually non-exclusive Combination Index equation across gICx values ranging from gIC30-gIC100. Combination Index values are shown for: NCI-H838 (3A), SW900 (3B), RT112/84 (3C), UMUC5 (3D), and UMUC11 (3E).

UMUC5 = test: as above; conditions: 240 h, 10 days, single agent or 1:1 combo; for IC30: read-out: gIC30; for IC40: read-out: gIC40; for IC50: read-out: gIC50; for IC60: read-out: gIC60; for IC70: read-out: gIC70; for IC80: read-out: gIC80; for IC90: read-out: gIC90; for IC100: read-out: gIC100
Description: as §1, §2, §3

UMUC11 [1] = test: as above; conditions: 240 h, 10 days, single agent or 1:1 combo; for IC30: read-out: gIC30; for IC40: read-out: gIC40; for IC50: read-out: gIC50; for IC60: read-out: gIC60; for IC70: read-out: gIC70; for IC80: read-out: gIC80; for IC90: read-out: gIC90; for IC100: read-out: gIC100
Description: as §1, §2, §3

SW900 = test: 10-day proliferation (CTG), Compound B titration + 1000 nM Compound A, Bliss (Example 2); set-up: key: GDI, -100 to 100; 0 = cell number at T0
Description: (§4) A 10-day proliferation assay was performed in a panel of 5 MTAP-deficient and 2 wild type non-small cell lung and bladder cancer cell lines. Optimal cell seeding for all cell lines was determined by assessing the growth over a range of seeding densities in a 384-well format to identify conditions that permitted proliferation for 10 days. Cells were then plated at the optimal seeding density and treated with 20-point, two-fold dilution series of Compound B in combination with a 1000 nM fixed concentration of Compound A. Single agent titrations for Compound A and Compound B were included for comparison. Concentrations tested for Compound A and Compound B alone or in combination ranged from 0.038 nM to 20,000 nM. A plate of cells was harvested at the time of compound addition to quantify the number of cells at the start of the combination (T0). For cell quantification, the harvested cells were lysed with Promega CellTiter-Glo (CTG) reagent according to the manufacturer's protocol and the chemiluminescent signal was detected as described in Example 1 above. Cells were incubated with the drug combinations at 37° C. with 5% CO2 for 10 days. Cells were then lysed with CTG and the chemiluminescent signal was measured.
(§5) CTG values obtained after the 10-day treatment were background subtracted and expressed as a percent of the T0 value set at 100%. Data were plotted against compound concentration and fit with a four-parameter equation to generate single agent dose response curves. Percent inhibition was determined for each combination and single agent concentration compared to a DMSO control. In addition, the overall net growth or death of the cells was calculated and reported as a growth death index (GDI) value on a scale of −100 to 100 with the midpoint (0) being the number of cells at the beginning of the combination (T0).
(§6) Predicted inhibition was calculated using (Ea+Eb)−(Ea*Eb) where E equals the effect (inhibition) of each single agent (a and b). A difference between the observed inhibition percentage and the predicted inhibition percentage greater than 10% was considered synergistic. A Bliss score was only calculated for combinations eliciting >20% growth inhibition (GDI value <80). Since Bliss is calculated based on growth inhibition, scores within cytotoxic dose ranges may not accurately reflect synergistic cytotoxicity.
(§7) Synergy was measured across the Compound B titration with 1000 nM Compound A by Bliss Independence analysis. Bliss scores >10 are indicated by “*” and are considered synergistic. […] Synergy as reported using Bliss may be underrepresented within cytotoxic dose ranges. Growth death index values are shown for the combination titration and each single agent Compound A (Cmpd A) and Compound B (Cmpd B) on a scale of −100 to 100 with the midpoint (0) being the number of cells at the beginning of the combination (T0).

UMUC11 [2] = test: as above; set-up: key: GDI, -100 to 100; 0 = cell number at T0
Description: as §4, §5, §6, §7

[3] = Cmpd B 0.04 nM, combo: + 1000 nM Cmpd A
[4] = Cmpd B 0.1 nM, combo: + 1000 nM Cmpd A
[5] = Cmpd B 0.2 nM, combo: + 1000 nM Cmpd A
[6] = Cmpd B 0.3 nM, combo: + 1000 nM Cmpd A
[7] = Cmpd B 0.6 nM, combo: + 1000 nM Cmpd A
[8] = Cmpd B 1.2 nM, combo: + 1000 nM Cmpd A
[9] = Cmpd B 2.4 nM, combo: + 1000 nM Cmpd A
[10] = Cmpd B 4.9 nM, combo: + 1000 nM Cmpd A
[11] = Cmpd B 9.8 nM, combo: + 1000 nM Cmpd A
[12] = Cmpd B 19.5 nM, combo: + 1000 nM Cmpd A
[13] = Cmpd B 39.1 nM, combo: + 1000 nM Cmpd A
[14] = Cmpd B 78.1 nM, combo: + 1000 nM Cmpd A
[15] = Cmpd B 156.3 nM, combo: + 1000 nM Cmpd A
[16] = Cmpd B 312.5 nM, combo: + 1000 nM Cmpd A
[17] = Cmpd B 625 nM, combo: + 1000 nM Cmpd A
[18] = Cmpd B 1250 nM, combo: + 1000 nM Cmpd A
[19] = Cmpd B 2500 nM, combo: + 1000 nM Cmpd A
[20] = Cmpd B 5000 nM, combo: + 1000 nM Cmpd A
[21] = Cmpd B 10000 nM, combo: + 1000 nM Cmpd A
[22] = Cmpd B 20000 nM, combo: + 1000 nM Cmpd A

Nc1nc(=O)n(-c2ccccc2Cl)c2nc(C(F)(F)F)ccc12 [Compound A]
IC30 (NCI-H838): 0.052 µM
IC40 (NCI-H838): 0.09 µM
IC50 (NCI-H838): 0.208 µM
IC60 (NCI-H838): 20 µM
IC70 (NCI-H838): 20 µM
IC80 (NCI-H838): 20 µM
IC90 (NCI-H838): 20 µM
IC100 (NCI-H838): 20 µM
IC30 (UMUC5): 0.357 µM
IC40 (UMUC5): 1.35 µM
IC50 (UMUC5): 5.16 µM
IC60 (UMUC5): 19.4 µM
IC70 (UMUC5): 20 µM
IC80 (UMUC5): 20 µM
IC90 (UMUC5): 20 µM
IC100 (UMUC5): 20 µM
IC30 (UMUC11 [1]): 20 µM
IC40 (UMUC11 [1]): 20 µM
IC50 (UMUC11 [1]): 20 µM
IC60 (UMUC11 [1]): 20 µM
IC70 (UMUC11 [1]): 20 µM
IC80 (UMUC11 [1]): 20 µM
IC90 (UMUC11 [1]): 20 µM
IC100 (UMUC11 [1]): 20 µM
GDI (SW900; single agent, 1000 nM Cmpd A): 99
GDI (UMUC11 [2]; single agent, 1000 nM Cmpd A): 92

Cc1cc(NC(=O)c2ccc(NS(=O)(=O)CCO)cc2N2CCC3(CC2)CC3)nc(N2CCC(F)(F)CC2)n1 [Compound B, N-(2-(4,4-difluoropiperidin-1-yl)-6-methylpyrimidin-4-yl)-4-((2-hydroxyethyl)sulfonamido)-2-(6-azaspiro[2.5]octan-6-yl)benzamide]
IC30 (NCI-H838): 0.735 µM
IC40 (NCI-H838): 1.48 µM
IC50 (NCI-H838): 12.5 µM
IC60 (NCI-H838): 14.3 µM
IC70 (NCI-H838): 17 µM
IC80 (NCI-H838): 20 µM
IC90 (NCI-H838): 20 µM
IC100 (NCI-H838): 20 µM
IC30 (UMUC5): 0.17 µM
IC40 (UMUC5): 0.194 µM
IC50 (UMUC5): 0.221 µM
IC60 (UMUC5): 0.253 µM
IC70 (UMUC5): 0.296 µM
IC80 (UMUC5): 0.37 µM
IC90 (UMUC5): 0.662 µM
IC100 (UMUC5): 20 µM
IC30 (UMUC11 [1]): 2.2 µM
IC40 (UMUC11 [1]): 3.48 µM
IC50 (UMUC11 [1]): 5.17 µM
IC60 (UMUC11 [1]): 7.3 µM
IC70 (UMUC11 [1]): 9.95 µM
IC80 (UMUC11 [1]): 13.2 µM
IC90 (UMUC11 [1]): 17.1 µM
IC100 (UMUC11 [1]): 20 µM
GDI (SW900; [3]): 100
GDI (SW900; [4]): 100
GDI (SW900; [5]): 100
GDI (SW900; [6]): 100
GDI (SW900; [7]): 100
GDI (SW900; [8]): 100
GDI (SW900; [9]): 99
GDI (SW900; [10]): 100
GDI (SW900; [11]): 100
GDI (SW900; [12]): 100
GDI (SW900; [13]): 99
GDI (SW900; [14]): 100
GDI (SW900; [15]): 100
GDI (SW900; [16]): 100
GDI (SW900; [17]): 86
GDI (SW900; [18]): 89
GDI (SW900; [19]): 83
GDI (SW900; [20]): 75
GDI (SW900; [21]): 64
GDI (SW900; [22]): 28
GDI (UMUC11 [2]; [3]): 100
GDI (UMUC11 [2]; [4]): 100
GDI (UMUC11 [2]; [5]): 100
GDI (UMUC11 [2]; [6]): 100
GDI (UMUC11 [2]; [7]): 100
GDI (UMUC11 [2]; [8]): 100
GDI (UMUC11 [2]; [9]): 100
GDI (UMUC11 [2]; [10]): 100
GDI (UMUC11 [2]; [11]): 100
GDI (UMUC11 [2]; [12]): 100
GDI (UMUC11 [2]; [13]): 100
GDI (UMUC11 [2]; [14]): 100
GDI (UMUC11 [2]; [15]): 100
GDI (UMUC11 [2]; [16]): 87
GDI (UMUC11 [2]; [17]): 72
GDI (UMUC11 [2]; [18]): 70
GDI (UMUC11 [2]; [19]): 74
GDI (UMUC11 [2]; [20]): 63
GDI (UMUC11 [2]; [21]): 32
GDI (UMUC11 [2]; [22]): −88
